This is an account of results in patent publication US20110319432A1 (priority 2009, published 2011).

Molecules are shown by their SMILES. Where two headings read alike, the source gives them in different places.

In the assay the test system is Phytophthora infestans. It is filed as cell-based. The following applies: MTP, absorption 405 nm, 7 days after inoculation, 18° C.

In the case of `CCCCCCCCc1c(CC)nc2ncnn2c1N` [5-Ethyl-6-octyl-[1,2,4]triazolo[1,5-a]pyrimidin-7-ylamine], the Observed efficacy (0.25 ppm) worked out at 31%.
Consider `O=C(NCCc1ncc(C(F)(F)F)cc1Cl)c1ccccc1C(F)(F)F` [Fluopyram], for which the Observed efficacy runs as follows: (0.016 ppm) 5%; (0.063 ppm) 5%.
